Measured values taken from patent US7326721B2 (Hypnion, Inc., priority 2003, dated 2008).
Several values for one entry are separate records, joined by “and”; a condition that tells them apart may be missing. Equal values may be shown once.

Columns and labels:
GABA-B = GABA-B (Homo sapiens, UniProt Q9UBS5); experiment: Table 12 panel: GABA-B; details: 1.0E−6, average N=2, read-out: percentage inhibition of specific binding
Text: (§1) The percentage inhibition (average; N=2) for these receptors is shown below in Table 12.
(§2) Values in Table 12 are expressed as percentage inhibition of specific binding, and these values represent the average of replicate tubes at each of the concentrations tested.

Glutamate, AMPA Site = experiment: Table 12 panel: Glutamate, AMPA; type: binding; details: 1.0E−6, average N=2
Text: as §1, §2

[1] = test system: Glutamic Acid Decarboxylase; experiment: Table 12 panel: Glutamic Acid Decarboxylase; type: biochemical; details: 1.0E−6, average N=2
Text: as §1, §2

[2] = test system: Potassium Channel, ATP-Sensitive; experiment: Table 12 panel: Potassium Channel, ATP-Sensitive; type: binding; details: 1.0E−6, average N=2
Text: as §1, §2

Dopamine Transporter = Dopamine Transporter (Homo sapiens, UniProt Q01959); experiment: Table 12 panel: Dopamine Transporter; details: 1.0E−6, average N=2, read-out: percentage inhibition of specific binding
Text: as §1, §2

GABA A, Agonist Site = experiment: Table 12 panel: GABA A, Agonist Site; type: binding; details: 1.0E−6, average N=2
Text: as §1, §2

[3] = biological target: Nitric Oxide, NOS (Neuronal-Binding) (Homo sapiens, UniProt P29475); experiment: Table 12 panel: NOS; details: 1.0E−6, average N=2, read-out: percentage inhibition of specific binding
Sequence of Nitric Oxide, NOS (Neuronal-Binding) (P29475 whole entry): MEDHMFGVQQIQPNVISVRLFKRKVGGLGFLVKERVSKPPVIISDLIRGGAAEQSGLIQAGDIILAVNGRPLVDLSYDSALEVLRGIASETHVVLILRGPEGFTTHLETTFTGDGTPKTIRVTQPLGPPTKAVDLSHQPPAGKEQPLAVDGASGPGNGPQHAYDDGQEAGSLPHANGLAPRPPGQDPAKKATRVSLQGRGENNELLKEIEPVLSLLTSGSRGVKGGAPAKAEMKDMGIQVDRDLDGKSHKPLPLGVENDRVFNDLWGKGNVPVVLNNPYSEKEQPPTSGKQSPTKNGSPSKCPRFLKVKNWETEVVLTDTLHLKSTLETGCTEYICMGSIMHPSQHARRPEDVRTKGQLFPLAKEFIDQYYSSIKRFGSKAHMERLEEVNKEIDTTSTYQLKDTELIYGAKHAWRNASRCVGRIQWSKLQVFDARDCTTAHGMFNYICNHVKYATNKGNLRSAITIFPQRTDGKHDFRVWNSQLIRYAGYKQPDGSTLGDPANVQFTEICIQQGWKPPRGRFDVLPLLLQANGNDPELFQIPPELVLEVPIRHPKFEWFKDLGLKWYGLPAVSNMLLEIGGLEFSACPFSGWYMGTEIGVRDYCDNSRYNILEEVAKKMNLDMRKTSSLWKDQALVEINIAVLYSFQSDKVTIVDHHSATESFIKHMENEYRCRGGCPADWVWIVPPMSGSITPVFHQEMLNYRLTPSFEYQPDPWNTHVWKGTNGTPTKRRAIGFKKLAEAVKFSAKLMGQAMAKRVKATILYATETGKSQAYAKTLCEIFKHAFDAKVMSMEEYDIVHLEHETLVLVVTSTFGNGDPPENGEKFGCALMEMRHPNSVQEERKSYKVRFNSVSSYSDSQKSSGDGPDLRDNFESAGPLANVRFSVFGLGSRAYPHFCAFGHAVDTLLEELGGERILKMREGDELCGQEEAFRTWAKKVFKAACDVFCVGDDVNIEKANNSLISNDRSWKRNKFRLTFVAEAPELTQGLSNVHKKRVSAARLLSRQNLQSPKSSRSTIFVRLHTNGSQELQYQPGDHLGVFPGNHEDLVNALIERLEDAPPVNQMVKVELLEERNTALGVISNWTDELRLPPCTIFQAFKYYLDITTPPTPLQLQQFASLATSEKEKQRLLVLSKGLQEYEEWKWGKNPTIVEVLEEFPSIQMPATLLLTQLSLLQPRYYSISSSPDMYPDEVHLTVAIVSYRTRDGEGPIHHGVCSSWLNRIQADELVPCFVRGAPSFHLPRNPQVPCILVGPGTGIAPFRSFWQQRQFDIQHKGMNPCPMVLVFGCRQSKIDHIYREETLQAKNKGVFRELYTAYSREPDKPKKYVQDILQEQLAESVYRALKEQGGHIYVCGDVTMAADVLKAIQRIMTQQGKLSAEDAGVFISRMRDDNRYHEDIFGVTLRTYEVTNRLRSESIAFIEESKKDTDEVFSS
Text: as §1, §2

Thromboxane A2 (h) = Thromboxane A2 (h) (Homo sapiens, UniProt P21731); experiment: Table 12 panel: Thromboxane A2; details: 1.0E−6, average N=2, read-out: percentage inhibition of specific binding
Sequence of Thromboxane A2 (h) (P21731 whole entry): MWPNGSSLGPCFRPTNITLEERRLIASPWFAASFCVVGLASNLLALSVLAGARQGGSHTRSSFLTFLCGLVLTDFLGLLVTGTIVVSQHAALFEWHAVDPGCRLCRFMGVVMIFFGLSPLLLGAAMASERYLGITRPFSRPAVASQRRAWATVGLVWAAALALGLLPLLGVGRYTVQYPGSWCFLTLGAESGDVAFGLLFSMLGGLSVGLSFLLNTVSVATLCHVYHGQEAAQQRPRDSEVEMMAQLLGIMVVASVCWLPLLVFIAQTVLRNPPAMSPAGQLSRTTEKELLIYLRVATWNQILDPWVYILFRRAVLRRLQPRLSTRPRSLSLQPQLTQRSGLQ
Text: as §1, §2

[4] = biological target: GABA A, BDZ, alpha 1 site (Homo sapiens, UniProt P14867+P18507); experiment: Table 12 panel: GABA A, BDZ; details: 1.0E−6, average N=2, read-out: percentage inhibition of specific binding
Sequence of GABA A, BDZ, alpha 1 site (P14867 28-456): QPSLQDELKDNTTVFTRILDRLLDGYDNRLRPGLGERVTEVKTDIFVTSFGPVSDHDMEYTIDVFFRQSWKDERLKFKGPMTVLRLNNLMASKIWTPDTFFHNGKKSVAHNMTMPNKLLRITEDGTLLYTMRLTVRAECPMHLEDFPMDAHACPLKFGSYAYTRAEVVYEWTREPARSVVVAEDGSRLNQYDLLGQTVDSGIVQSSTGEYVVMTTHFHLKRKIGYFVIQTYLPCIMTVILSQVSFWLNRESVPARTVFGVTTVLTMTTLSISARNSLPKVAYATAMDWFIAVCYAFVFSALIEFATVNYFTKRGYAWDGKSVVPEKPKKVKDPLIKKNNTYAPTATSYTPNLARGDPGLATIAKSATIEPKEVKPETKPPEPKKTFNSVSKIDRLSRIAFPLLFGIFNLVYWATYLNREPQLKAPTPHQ
Sequence of GABA A, BDZ, alpha 1 site (P18507 40-467 limits assumed): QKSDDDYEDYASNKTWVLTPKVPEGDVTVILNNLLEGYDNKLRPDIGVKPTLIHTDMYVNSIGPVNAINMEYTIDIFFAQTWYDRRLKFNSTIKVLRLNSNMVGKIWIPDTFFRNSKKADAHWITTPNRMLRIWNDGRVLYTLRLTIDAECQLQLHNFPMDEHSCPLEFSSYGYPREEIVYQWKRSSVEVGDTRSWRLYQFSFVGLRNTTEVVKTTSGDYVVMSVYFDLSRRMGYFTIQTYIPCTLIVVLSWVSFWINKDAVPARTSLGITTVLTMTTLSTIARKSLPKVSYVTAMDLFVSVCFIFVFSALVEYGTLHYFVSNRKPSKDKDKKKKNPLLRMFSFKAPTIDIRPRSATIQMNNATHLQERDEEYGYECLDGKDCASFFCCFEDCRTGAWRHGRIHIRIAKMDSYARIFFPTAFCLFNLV
Sequence of GABA A, BDZ, alpha 1 site (P47870 25-512 partner limits assumed): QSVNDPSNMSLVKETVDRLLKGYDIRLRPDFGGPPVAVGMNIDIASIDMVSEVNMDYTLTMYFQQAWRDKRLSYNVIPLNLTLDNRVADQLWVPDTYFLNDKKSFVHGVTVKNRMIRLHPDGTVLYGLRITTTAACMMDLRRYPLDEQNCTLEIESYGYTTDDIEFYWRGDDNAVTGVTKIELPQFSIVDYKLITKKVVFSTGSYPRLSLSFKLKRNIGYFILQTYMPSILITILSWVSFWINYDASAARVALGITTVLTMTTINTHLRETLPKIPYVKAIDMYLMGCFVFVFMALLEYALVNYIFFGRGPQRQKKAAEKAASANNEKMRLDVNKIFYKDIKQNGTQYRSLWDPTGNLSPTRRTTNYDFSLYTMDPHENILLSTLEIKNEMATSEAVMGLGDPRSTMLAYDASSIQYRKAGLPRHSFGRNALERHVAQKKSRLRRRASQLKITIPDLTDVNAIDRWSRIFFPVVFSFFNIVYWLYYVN
Text: as §1, §2

Estrogen = experiment: Table 12 panel: Estrogen; type: binding; details: 1.0E−6, average N=2
Text: as §1, §2

Calcium Channel, Type N = Calcium Channel, Type N (Homo sapiens, UniProt Q00975); experiment: Table 12 panel: Calcium Channel, Type N; details: 1.0E−6, average N=2, read-out: percentage inhibition of specific binding
Text: as §1, §2

[5] = 14-day rat study with recovery; type: in vivo; details: both sexes, Crl:CD(SD)IGS BR, rat, in vivo, po
Protocol: (§3) The purpose of this study was to evaluate the toxicity of HY2901 when administered via oral gavage to rats for at least 14 days and to assess the reversibility, persistence, or delayed occurrence of any effects after a recovery period of up to 14 days.
(§4) Male and female Crl:CD®(SD)IGS BR rats were assigned to seven groups, four main study groups and three groups for toxicokinetics. Each group received dose preparations containing 0.25% methylcellulose, 400 cps in 200 mM acetate buffer, or 10, 30, or 150 mg of test article/kg of body weight (mg/kg/day) at a dose volume of 5 mL/kg.
(§5) Assessment of toxicity was based on mortality, clinical and ophthalmic observations, body weights, food consumption, clinical pathology, organ weights, and macroscopic and microscopic findings. Blood samples were collected for toxicokinetic evaluation.

Crl:CD(SD)IGS BR rats = experiment: 14-day rat study with recovery; type: in vivo
Protocol: as §3, §4, §5

Crl: CD(SD)IGS BR rats = experiment: Acute rat study (toxicity and MTD, oral gavage, 5 days); type: in vivo
Protocol: The purpose of this study was to evaluate the toxicity and maximum tolerated dose (MTD) of the test articles when given via oral gavage to rats. Male Crl: CD®(SD)IGS BR rats (3/group) were assigned to 5 groups. At initiation of dosing, animals were approximately 7 weeks old with body weights ranging from 172 to 206 g. Each group received either 50, 100, 150, 200, or 250 mg/kg of HY2901 once daily for 5 days. All surviving animals were sacrificed on Day 6. Assessment of toxicity was based on mortality, clinical observations, and body weight data.

Crl:CD-I(ICR)BR mice = experiment: Acetic acid-induced abdominal spasm test in the mouse; type: in vivo; details: for Number of abdominal spasms recorded in a 25-minute period: oral
Protocol: The objective of this example was to determine the analgesic activity of HY-2901 (Also referred to herein as Compound 49a) following oral administration. Analgesic activity was assessed abdominal spasm test in the rat and mouse. Analgesic activity is also assessed using the tail clip test in the mouse, tail flick test in the rat, Randall-Selitto test in the rat and comparisons are made with a vehicle control group. Reference compounds ASA (acetylsalicylic acid) and morphine are also included for comparison.
The tail clip and tail flick test provide useful information about the central analgesic activity of the test article. The Randall-Selitto test provides information on the compound's ability to modify a hyperalgesic state and the abdominal spasm test provides information on the peripheral analgesic activity of the test article. The test article is administered by oral gavage, this being the intended clinical route of administration. The dose levels employed are expected to encompass the efficacy dose and provide an adequate safety margin.
All formulations were prepared on each day of dosing. The test article (HY-2901) was formulated in 0.25% (w/v) MC at the highest concentration required. Lower doses were obtained by serial dilution of the highest concentration using 0.25% (w/v) MC. The reference compound, acetylsalicylic acid, was formulated in 0.25% (w/v) MC at the required concentrations. Brewer's yeast was formulated in water for injection at the required concentration. Acetic acid was diluted with water for injection to provide the required concentration for administration.
An adequate number of male Crl:CD-I(ICR)BR mice and Wistar rats were obtained from Charles River (UK) Ltd., Margate, Kent. The mice were approximately 4 weeks of age and weigh between 18 and 22 g on arrival. The rats were approximately 5 weeks of age and weigh between 150 and 170 g on arrival. The age and weight of the animals at the start of the study was documented in the raw data and final report,
Each animal received a single administration of vehicle, test article or reference compound by oral gavage, using a constant dose volume 10 mL/kg. Individual dose volumes were based on individual body weights obtained on the day of dosing.
Forty-five minutes following oral administration each animal received a 0.25 mL intraperitoneal injection of 0.5% acetic acid. Animals were immediately placed into individual observation chambers and the number of abdominal spasms elicited over the subsequent 25-minute period was recorded.

[6] = 50 to 250 mg/kg once daily for 5 days

Sequence of GABA-B (Q9UBS5 15-961 limits assumed): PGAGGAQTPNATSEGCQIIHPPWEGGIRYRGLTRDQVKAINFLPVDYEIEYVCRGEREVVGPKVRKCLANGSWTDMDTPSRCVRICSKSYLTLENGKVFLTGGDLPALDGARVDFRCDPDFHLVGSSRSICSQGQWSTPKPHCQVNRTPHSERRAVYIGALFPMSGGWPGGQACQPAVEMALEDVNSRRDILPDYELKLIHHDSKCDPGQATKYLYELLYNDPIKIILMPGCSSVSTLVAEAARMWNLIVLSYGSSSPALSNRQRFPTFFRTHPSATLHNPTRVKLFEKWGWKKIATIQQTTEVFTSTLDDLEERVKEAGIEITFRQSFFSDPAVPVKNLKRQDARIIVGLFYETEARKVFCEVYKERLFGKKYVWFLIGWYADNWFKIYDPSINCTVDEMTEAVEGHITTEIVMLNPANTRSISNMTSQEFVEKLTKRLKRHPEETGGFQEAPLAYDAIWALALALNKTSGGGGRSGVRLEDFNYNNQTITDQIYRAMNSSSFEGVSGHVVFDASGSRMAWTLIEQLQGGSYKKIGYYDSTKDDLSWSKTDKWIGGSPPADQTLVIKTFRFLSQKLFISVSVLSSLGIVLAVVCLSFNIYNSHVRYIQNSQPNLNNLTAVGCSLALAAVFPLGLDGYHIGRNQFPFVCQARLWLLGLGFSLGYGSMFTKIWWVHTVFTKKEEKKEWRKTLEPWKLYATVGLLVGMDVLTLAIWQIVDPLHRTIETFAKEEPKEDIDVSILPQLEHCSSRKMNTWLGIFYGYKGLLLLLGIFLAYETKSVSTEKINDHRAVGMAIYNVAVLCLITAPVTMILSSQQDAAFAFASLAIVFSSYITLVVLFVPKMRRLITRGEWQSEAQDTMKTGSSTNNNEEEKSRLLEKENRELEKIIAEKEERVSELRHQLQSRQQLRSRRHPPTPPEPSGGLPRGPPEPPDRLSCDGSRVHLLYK
Sequence of GABA-B (O75899 42-941 partner): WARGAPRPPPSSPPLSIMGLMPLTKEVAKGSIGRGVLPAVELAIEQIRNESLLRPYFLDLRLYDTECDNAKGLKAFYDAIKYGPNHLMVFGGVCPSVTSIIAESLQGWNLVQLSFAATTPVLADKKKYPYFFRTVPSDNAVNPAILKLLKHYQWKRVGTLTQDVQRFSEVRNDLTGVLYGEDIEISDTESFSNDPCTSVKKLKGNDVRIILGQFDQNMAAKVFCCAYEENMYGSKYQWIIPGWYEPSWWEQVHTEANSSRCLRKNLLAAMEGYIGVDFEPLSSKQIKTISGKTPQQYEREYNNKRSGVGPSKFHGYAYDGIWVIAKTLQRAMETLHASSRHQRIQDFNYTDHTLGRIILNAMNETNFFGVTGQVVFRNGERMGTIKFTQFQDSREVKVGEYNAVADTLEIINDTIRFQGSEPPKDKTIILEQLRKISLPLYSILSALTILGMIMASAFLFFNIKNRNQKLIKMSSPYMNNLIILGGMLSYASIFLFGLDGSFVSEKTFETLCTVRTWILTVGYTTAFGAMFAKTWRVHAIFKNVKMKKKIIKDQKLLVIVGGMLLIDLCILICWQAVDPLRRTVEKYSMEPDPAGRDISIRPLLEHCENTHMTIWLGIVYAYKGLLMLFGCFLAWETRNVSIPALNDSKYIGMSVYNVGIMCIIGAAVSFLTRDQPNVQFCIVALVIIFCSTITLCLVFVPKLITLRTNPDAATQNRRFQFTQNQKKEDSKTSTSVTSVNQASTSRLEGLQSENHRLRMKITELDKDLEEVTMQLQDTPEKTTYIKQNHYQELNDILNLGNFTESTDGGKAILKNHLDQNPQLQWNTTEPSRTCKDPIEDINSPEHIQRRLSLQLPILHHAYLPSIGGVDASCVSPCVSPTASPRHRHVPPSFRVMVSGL

CC(CC(=O)O)N1CCC(=C2c3ccc(F)cc3COc3ccccc32)CC1 (stereo not shown) [Compound 37]
inhibition at 1 µM (GABA-B): 2.17%
percentage inhibition of specific binding (Glutamate, AMPA Site): 3.59%
percentage inhibition [1]: −4.76%
percentage inhibition of specific binding [2]: 26.16%
inhibition at 1 µM (Dopamine Transporter): 2.14%
percentage inhibition of specific binding (GABA A, Agonist Site): 20.18%
inhibition at 1 µM [3]: 17.2%
inhibition at 1 µM (Thromboxane A2 (h)): 6.55%
inhibition at 1 µM [4]: -7.13%
percentage inhibition of specific binding (Estrogen): −4.68%
inhibition at 1 µM (Calcium Channel, Type N): 3.45%

CC(C)(CN1CCC(=C2c3ccc(F)cc3COc3ccccc32)CC1)C(=O)O [Compound 49a]
NOAEL at 14 days [5]: 30 mg/kg/day
mean body weight (Crl:CD(SD)IGS BR rats; 150 mg/kg/day males): depression in mean body weight of the 150 mg/kg/day males
mean weights of thymus, lung, and heart (Crl:CD(SD)IGS BR rats; 150 mg/kg/day males, terminal sacrifice): significantly low relative to brain weight
food consumption (Crl:CD(SD)IGS BR rats; 150 mg/kg/day, Week 1): depression in food consumption in 150 mg/kg/day rats in Week 1
expected pharmacological effects (clinical signs) (Crl:CD(SD)IGS BR rats; 10, 30, or 150 mg/kg/day): hypoactivity, ataxia, and the appearance of sleep, were commonly observed
unscheduled deaths (Crl:CD(SD)IGS BR rats; 10, 30, or 150 mg/kg/day, 14 days): largely restricted to the 150 mg/kg/day groups
ophthalmic observations (Crl:CD(SD)IGS BR rats; all groups): No ophthalmic lesions
clinical pathology findings (Crl:CD(SD)IGS BR rats; rat, in vivo): unrelated to treatment
increases in Cmax and AUC(0-t) with dose (Crl:CD(SD)IGS BR rats; rat, in vivo): greater than dose proportional
accumulation after multiple dosing (Crl:CD(SD)IGS BR rats; rats): Minimum accumulation
macroscopic and microscopic findings (Crl:CD(SD)IGS BR rats; terminal and recovery sacrifice rats): No treatment-related macroscopic observations or microscopic toxic effects
ataxia (Crl: CD(SD)IGS BR rats; [6]): dose-response relationship was observed in the incidence and duration of ataxia
hypoactivity / apparent sleep (Crl: CD(SD)IGS BR rats; [6]): Hypoactivity was observed in all rats
Day 6 body weights (Crl: CD(SD)IGS BR rats; two 250 mg/kg rats, relative to other rats): slightly decreased
Group mean (±sd) number of abdominal spasms recorded in a 25 minute period (Crl:CD-I(ICR)BR mice; oral 3 mg/kg): 6 ± 6.2
Group mean (±sd) number of abdominal spasms recorded in a 25 minute period (Crl:CD-I(ICR)BR mice; oral 10 mg/kg): 1 ± 2.0
Group mean (±sd) number of abdominal spasms recorded in a 25 minute period (Crl:CD-I(ICR)BR mice; oral 30 mg/kg): 0 ± 0.0
Number of abdominal spasms recorded in a 25-minute period (Crl:CD-I(ICR)BR mice; 3 mg/kg, individual animal data (animals 7-12), listed as HY-2901, 3 mg/kg): 0 (2×) and 1 and 10 and 7 and 15
Number of abdominal spasms recorded in a 25-minute period (Crl:CD-I(ICR)BR mice; 10 mg/kg, individual animal data (animals 13-18), listed as HY-2901, 10 mg/kg): 0 (4×) and 2 and 5
Number of abdominal spasms recorded in a 25-minute period (Crl:CD-I(ICR)BR mice; 30 mg/kg, individual animal data (animals 19-24)): 0
